Laboratory results taken from patent US20240239861A1, “GLUCAGON-RECEPTOR SELECTIVE POLYPEPTIDES AND METHODS OF USE THEREOF” (i2O Therapeutics, Inc., priority 2016, published 2024).
Where a SMILES comes first, the peptide text is derived from it. [ ]: non-standard residue; d: D form. Aib = CC(C)(N)C(=O)O

Tests used:
human GCGR = human GCGR (Homo sapiens, UniProt P47871); assay: Peptide-receptor mediated cAMP accumulation (LANCE Ultra cAMP) in CHO-K1 cells transfected with human GCGR; type: cell-based; details: Table 3
human GLP-1R = human GLP-1R (Homo sapiens, UniProt P43220); assay: Peptide-receptor mediated cAMP accumulation (LANCE Ultra cAMP) in CHO-K1 cells transfected with human GLP-1R; type: cell-based; details: hGLP1 pEC50 (cAMP mean (n = 3): 11 point curve starting at 1 nM, Table 3)
Sequence of human GLP-1R (P43220 24-463): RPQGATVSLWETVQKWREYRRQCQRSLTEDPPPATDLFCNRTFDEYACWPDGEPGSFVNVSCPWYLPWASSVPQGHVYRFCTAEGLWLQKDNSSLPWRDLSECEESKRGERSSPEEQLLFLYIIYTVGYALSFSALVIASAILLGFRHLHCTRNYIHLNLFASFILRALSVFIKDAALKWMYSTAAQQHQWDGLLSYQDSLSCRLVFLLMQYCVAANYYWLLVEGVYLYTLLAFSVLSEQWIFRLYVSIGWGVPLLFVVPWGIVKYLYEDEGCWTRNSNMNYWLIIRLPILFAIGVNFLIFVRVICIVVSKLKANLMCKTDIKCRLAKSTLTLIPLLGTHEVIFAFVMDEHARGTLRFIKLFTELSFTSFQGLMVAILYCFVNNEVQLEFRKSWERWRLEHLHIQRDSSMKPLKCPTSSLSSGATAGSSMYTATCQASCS

Sequence of human GCGR (P47871 26-477): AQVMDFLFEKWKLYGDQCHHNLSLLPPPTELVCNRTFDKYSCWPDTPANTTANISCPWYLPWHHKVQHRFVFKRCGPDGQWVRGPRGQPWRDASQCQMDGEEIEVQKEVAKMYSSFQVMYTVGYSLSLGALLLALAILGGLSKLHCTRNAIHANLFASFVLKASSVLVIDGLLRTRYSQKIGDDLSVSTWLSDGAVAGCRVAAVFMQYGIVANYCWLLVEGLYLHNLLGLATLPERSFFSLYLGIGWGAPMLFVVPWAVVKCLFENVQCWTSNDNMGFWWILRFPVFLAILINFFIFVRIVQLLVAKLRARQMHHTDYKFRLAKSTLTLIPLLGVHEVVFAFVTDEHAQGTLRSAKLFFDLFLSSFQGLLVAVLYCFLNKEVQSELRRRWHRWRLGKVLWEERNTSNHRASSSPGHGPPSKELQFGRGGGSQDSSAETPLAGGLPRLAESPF

| Compound | EC50 (human GCGR) | EC50 (human GLP-1R) |
| --- | --- | --- |
| CC(C)C[C@H](NC(=O)[C@H](Cc1ccc(O)cc1)NC(=O)[C@H](CCCCN)NC(=O)[C@H](CO)NC(=O)[C@H](Cc1ccc(O)cc1)NC(=O)[C@H](CC(=O)O)NC(=O)[C@H](CO)NC(=O)[C@@H](NC(=O)[C@H](Cc1ccccc1)NC(=O)[C@@H](NC(=O)CNC(=O)[C@H](Cc1c[nH]cn1)NC(=O)[C@H](CO)NC(=O)[C@@H](N)Cc1ccc(O)cc1)[C@@H](C)O)[C@@H](C)O)C(=O)N[C@@H](CC(=O)O)C(=O)NC(C)(C)C(=O)N[C@@H](CCCCN)C(=O)N[C@@H](CCCNC(=N)N)C(=O)N[C@@H](C)C(=O)N[C@@H](CCC(N)=O)C(=O)N[C@@H](CCC(=O)O)C(=O)N[C@@H](Cc1ccccc1)C(=O)N[C@H](C(=O)NC(C)(C)C(=O)N[C@@H](Cc1c[nH]c2ccccc12)C(=O)N[C@@H](CC(C)C)C(=O)N[C@@H](CCC(=O)O)C(=O)N[C@@H](CC(=O)O)C(=O)N[C@@H](CCC(=O)O)C(=O)N1CCC[C@H]1C(=O)N[C@@H](CCC(=O)O)C(=O)N[C@@H](CO)C(=O)NCC(=O)N[C@@H](C)C(=O)N1CCC[C@H]1C(=O)N1CCC[C@H]1C(=O)N1CCC[C@H]1C(=O)N[C@@H](CO)C(=O)O)C(C)C [Compound A31] (H-YSHGTFTSDYSKYLD[Aib]KRAQEFV[Aib]WLEDEPESGAPPPS-OH; N-terminus assumed) | 0.002 nM | > 1 nM |
| CC(C)C[C@H](NC(=O)[C@H](Cc1c[nH]c2ccccc12)NC(=O)[C@H](CCCCN)NC(=O)[C@H](CO)NC(=O)[C@H](Cc1c[nH]cn1)NC(=O)[C@H](CC(=O)O)NC(=O)[C@H](CO)NC(=O)[C@@H](NC(=O)[C@H](Cc1ccccc1)NC(=O)[C@@H](NC(=O)CNC(=O)[C@H](Cc1c[nH]cn1)NC(=O)[C@H](CO)NC(=O)[C@@H](N)Cc1ccc(O)cc1)[C@@H](C)O)[C@@H](C)O)C(=O)N[C@@H](CC(=O)O)C(=O)NC(C)(C)C(=O)N[C@@H](CCCCN)C(=O)N[C@@H](CCCNC(=N)N)C(=O)N[C@@H](C)C(=O)N[C@@H](CCC(N)=O)C(=O)N[C@@H](CCC(=O)O)C(=O)N[C@@H](Cc1ccccc1)C(=O)N[C@H](C(=O)NC(C)(C)C(=O)N[C@@H](Cc1c[nH]c2ccccc12)C(=O)N[C@@H](CC(C)C)C(=O)N[C@@H](CCC(=O)O)C(=O)N[C@@H](CC(=O)O)C(=O)N[C@@H](CCC(=O)O)C(=O)N1CCC[C@H]1C(=O)N[C@@H](CO)C(=O)N[C@@H](CO)C(=O)NCC(=O)N[C@@H](C)C(=O)N1CCC[C@H]1C(=O)N1CCC[C@H]1C(=O)N1CCC[C@H]1C(=O)N[C@@H](CO)C(=O)O)C(C)C [Compound A33] (H-YSHGTFTSDHSKWLD[Aib]KRAQEFV[Aib]WLEDEPSSGAPPPS-OH; N-terminus assumed) | 0.0126 nM | > 1 nM |
| CC(C)C[C@H](NC(=O)[C@H](Cc1c[nH]c2ccccc12)NC(=O)[C@H](CCCCN)NC(=O)[C@H](CO)NC(=O)[C@H](Cc1c[nH]cn1)NC(=O)[C@H](CC(=O)O)NC(=O)[C@H](CO)NC(=O)[C@@H](NC(=O)[C@H](Cc1ccccc1)NC(=O)[C@@H](NC(=O)CNC(=O)[C@H](Cc1c[nH]cn1)NC(=O)[C@@H](NC(=O)[C@@H](N)Cc1ccc(O)cc1)[C@@H](C)O)[C@@H](C)O)[C@@H](C)O)C(=O)N[C@@H](CC(=O)O)C(=O)NC(C)(C)C(=O)N[C@@H](CCCCN)C(=O)N[C@@H](CCCNC(=N)N)C(=O)N[C@@H](C)C(=O)N[C@@H](CCC(N)=O)C(=O)N[C@@H](CCC(=O)O)C(=O)N[C@@H](Cc1ccccc1)C(=O)N[C@H](C(=O)NC(C)(C)C(=O)N[C@@H](Cc1c[nH]c2ccccc12)C(=O)N[C@@H](CC(C)C)C(=O)N[C@@H](CCC(=O)O)C(=O)N[C@@H](CC(=O)O)C(=O)N[C@@H](CCC(=O)O)C(=O)N1CCC[C@H]1C(=O)N[C@@H](CO)C(=O)N[C@@H](CO)C(=O)NCC(=O)N[C@@H](C)C(=O)N1CCC[C@H]1C(=O)N1CCC[C@H]1C(=O)N1CCC[C@H]1C(=O)N[C@@H](CO)C(=O)O)C(C)C [Compound A34] (H-YTHGTFTSDHSKWLD[Aib]KRAQEFV[Aib]WLEDEPSSGAPPPS-OH; N-terminus assumed) | 0.0501 nM | > 1 nM |
| CC(C)C[C@H](NC(=O)[C@H](Cc1c[nH]c2ccccc12)NC(=O)[C@H](CCCCN)NC(=O)[C@H](CO)NC(=O)[C@H](Cc1c[nH]cn1)NC(=O)[C@H](CC(=O)O)NC(=O)[C@H](CO)NC(=O)[C@@H](NC(=O)[C@H](Cc1ccccc1)NC(=O)[C@@H](NC(=O)CNC(=O)[C@H](Cc1c[nH]cn1)NC(=O)[C@H](CO)NC(=O)[C@@H](N)Cc1ccc(O)cc1)[C@@H](C)O)[C@@H](C)O)C(=O)N[C@@H](CC(=O)O)C(=O)NC(C)(C)C(=O)N[C@@H](C)C(=O)N[C@@H](CCCNC(=N)N)C(=O)N[C@@H](C)C(=O)N[C@@H](CCC(N)=O)C(=O)N[C@@H](CCC(=O)O)C(=O)N[C@@H](Cc1ccccc1)C(=O)N[C@H](C(=O)NC(C)(C)C(=O)N[C@@H](Cc1c[nH]c2ccccc12)C(=O)N[C@@H](CC(C)C)C(=O)N[C@@H](CCC(=O)O)C(=O)N[C@@H](CC(=O)O)C(=O)N[C@@H](CCC(=O)O)C(=O)N1CCC[C@H]1C(=O)N[C@@H](CO)C(=O)N[C@@H](CO)C(=O)NCC(=O)N[C@@H](C)C(=O)N1CCC[C@H]1C(=O)N1CCC[C@H]1C(=O)N1CCC[C@H]1C(=O)N[C@@H](CO)C(=O)O)C(C)C [Compound A36] (H-YSHGTFTSDHSKWLD[Aib]ARAQEFV[Aib]WLEDEPSSGAPPPS-OH; N-terminus assumed) | 0.0631 nM | > 1 nM |
| CC(C)C[C@H](NC(=O)[C@H](Cc1c[nH]c2ccccc12)NC(=O)[C@H](CCCCN)NC(=O)[C@H](CO)NC(=O)[C@H](Cc1ccc(O)cc1)NC(=O)[C@H](CC(=O)O)NC(=O)[C@H](CO)NC(=O)[C@@H](NC(=O)[C@H](Cc1ccccc1)NC(=O)[C@@H](NC(=O)CNC(=O)[C@H](Cc1c[nH]cn1)NC(=O)[C@@H](NC(=O)[C@@H](N)Cc1ccc(O)cc1)[C@@H](C)O)[C@@H](C)O)[C@@H](C)O)C(=O)N[C@@H](CC(=O)O)C(=O)N[C@@H](CO)C(=O)N[C@@H](C)C(=O)N[C@@H](CCCNC(=N)N)C(=O)N[C@@H](C)C(=O)N[C@@H](CCC(N)=O)C(=O)N[C@@H](CCC(=O)O)C(=O)N[C@@H](Cc1ccccc1)C(=O)N[C@H](C(=O)N[C@@H](CCCCN)C(=O)N[C@@H](Cc1c[nH]c2ccccc12)C(=O)N[C@@H](CC(C)C)C(=O)N[C@@H](CCC(=O)O)C(=O)N[C@@H](CC(=O)O)C(=O)N[C@@H](CCC(=O)O)C(=O)N1CCC[C@H]1C(=O)N[C@@H](CO)C(=O)N[C@@H](CO)C(=O)NCC(=O)N[C@@H](C)C(=O)N1CCC[C@H]1C(=O)N1CCC[C@H]1C(=O)N1CCC[C@H]1C(=O)N[C@@H](CO)C(=O)O)C(C)C [Compound A39] (H-YTHGTFTSDYSKWLDSARAQEFVKWLEDEPSSGAPPPS-OH; N-terminus assumed) | 0.398 nM | > 1 nM |
| CC(C)C[C@H](NC(=O)[C@H](Cc1c[nH]c2ccccc12)NC(=O)[C@H](CCCCN)NC(=O)[C@H](CO)NC(=O)[C@H](Cc1c[nH]cn1)NC(=O)[C@H](CC(=O)O)NC(=O)[C@H](CO)NC(=O)[C@@H](NC(=O)[C@H](Cc1ccccc1)NC(=O)[C@@H](NC(=O)CNC(=O)[C@H](Cc1c[nH]cn1)NC(=O)[C@H](CO)NC(=O)[C@@H](N)Cc1ccc(O)cc1)[C@@H](C)O)[C@@H](C)O)C(=O)N[C@@H](CC(=O)O)C(=O)N[C@@H](CO)C(=O)N[C@@H](C)C(=O)N[C@@H](CCCNC(=N)N)C(=O)N[C@@H](C)C(=O)N[C@@H](CCC(N)=O)C(=O)N[C@@H](CCC(=O)O)C(=O)N[C@@H](Cc1ccccc1)C(=O)N[C@H](C(=O)N[C@@H](CCCCN)C(=O)N[C@@H](Cc1c[nH]c2ccccc12)C(=O)N[C@@H](CC(C)C)C(=O)N[C@@H](CCC(=O)O)C(=O)N[C@@H](CC(=O)O)C(=O)N[C@@H](CCC(=O)O)C(=O)N1CCC[C@H]1C(=O)N[C@@H](CO)C(=O)N[C@@H](CO)C(=O)NCC(=O)N[C@@H](C)C(=O)N1CCC[C@H]1C(=O)N1CCC[C@H]1C(=O)N1CCC[C@H]1C(=O)N[C@@H](CO)C(=O)O)C(C)C [Compound A40] (H-YSHGTFTSDHSKWLDSARAQEFVKWLEDEPSSGAPPPS-OH; N-terminus assumed) | 0.0794 nM | > 1 nM |
| CC(C)C[C@H](NC(=O)[C@H](Cc1c[nH]c2ccccc12)NC(=O)[C@H](CCCCN)NC(=O)[C@H](CO)NC(=O)[C@H](Cc1c[nH]cn1)NC(=O)[C@H](CC(=O)O)NC(=O)[C@H](CO)NC(=O)[C@@H](NC(=O)[C@H](Cc1ccccc1)NC(=O)[C@@H](NC(=O)CNC(=O)[C@H](Cc1c[nH]cn1)NC(=O)[C@@H](NC(=O)[C@@H](N)Cc1ccc(O)cc1)[C@@H](C)O)[C@@H](C)O)[C@@H](C)O)C(=O)N[C@@H](CC(=O)O)C(=O)N[C@@H](CCC(=O)O)C(=O)N[C@@H](C)C(=O)N[C@@H](CCCNC(=N)N)C(=O)N[C@@H](C)C(=O)N[C@@H](CCC(N)=O)C(=O)N[C@@H](CCC(=O)O)C(=O)N[C@@H](Cc1ccccc1)C(=O)N[C@H](C(=O)N[C@@H](CCCCN)C(=O)N[C@@H](Cc1c[nH]c2ccccc12)C(=O)N[C@@H](CC(C)C)C(=O)N[C@@H](CCC(=O)O)C(=O)N[C@@H](CC(=O)O)C(=O)N[C@@H](CCC(=O)O)C(=O)N1CCC[C@H]1C(=O)N[C@@H](CO)C(=O)N[C@@H](CO)C(=O)NCC(=O)N[C@@H](C)C(=O)N1CCC[C@H]1C(=O)N1CCC[C@H]1C(=O)N1CCC[C@H]1C(=O)N[C@@H](CO)C(=O)O)C(C)C [Compound A41] (H-YTHGTFTSDHSKWLDEARAQEFVKWLEDEPSSGAPPPS-OH; N-terminus assumed) | 0.631 nM | > 1 nM |
